System: Glu-tubulin signal in HeLa cells
Test: Glu-tubulin dose-effect, immunofluorescence in microplates
Format: cell-based, Human
Settings: 2 h, highest concentrations
Procedure: HeLa cells are seeded in black-bottomed black 96-well microplates (Greiner 655086) by distributing 90 μl per well of a cell solution containing 40 000 cells/ml, and incubated at 37° C. with 5% CO2. 24 h later, the cells are incubated with the molecules to be tested for 2 h at 37° C. with 5% CO2. The cells are then permeabilized with warm OPT buffer for 6 minutes at 37° C. then fixed in methanol for 10 minutes at room temperature. The cells are rinsed twice with PBS/0.1% Tween® 20 and incubated with the primary antibodies YL1/2 and L4 (cf. the antibodies from Table III) diluted to 1/4000 in a solution of PBS/0.3% BSA/0.02% NaN3 overnight at 37° C. […] The various fluorescence intensities are measured using the FLUOstar OPTIMA reader. […]
A dose-effect curve measuring the variation of the amount of Glu-tubulin was produced for Compound 1 of the invention. […] The fluorescence intensity was then measured using the microplate reader.
The percentage of the signal measured represents its distance relative to the control of bioactivity (paclitaxel (Taxol®)) and to the control of bioinactivity (DMSO). The EC50 was determined using KaleidaGraph® 3.60 software.

Compound: Cc1c2cc[nH]c(=O)c2c(C)c2c1[nH]c1ccc(OC(=O)c3ccccc3)cc12 [Compound 1, 9-benzoyloxy-5,11-dimethyl-2H,6H-pyrido[4,3-b]carbazol-1-one]
- Increase in the Glu signal relative to paclitaxel: slightly smaller than that of paclitaxel
